{"source": "patent US20220387604A1", "about": "“SELECTIVE DUAL HISTONE DEACETYLASE 6/8 (HDAC6/8) DEGRADERS AND METHODS OF USE THEREOF” (DANA-FARBER CANCER INSTITUTE, INC., priority 2019, published 2022)", "key": {"HDAC6/8": {"system": "HDAC6/8", "assay": "Quantitative proteomics of cellular protein abundance in Kelly cells: HDAC6/8", "assay_type": "cell-based, human", "details": "moderated t-test, scatter plots FIG. 2A-2C, 4A-4B", "experimental": "Lysis buffer (8 M Urea, 50 mM NaCl, 50 mM 4-(2hydroxyethyl)-1-piperazineethanesulfonic acid (EPPS) pH 8.5, protease and phosphatase inhibitors from Roche®) were added to the cell pellets and homogenized by 20 passes through a 21 gauge (1.25 in. long) needle to achieve a cell lysate with a protein concentration between 1-4 mg mL^−1. A micro-BCA assay (Pierce™) was used to determine the final protein concentration in the cell lysate. 200 μg of protein for each sample were reduced and alkylated as described in Donovan et al., Elife 7:e38430 (2018).\nProteins were precipitated using methanol/chloroform. Four volumes of methanol were added to the cell lysate, followed by one volume of chloroform, and finally three volumes of water. The mixture was vortexed and centrifuged to separate the chloroform phase from the aqueous phase. The precipitated protein was washed with three volumes of methanol, centrifuged and the resulting washed precipitated protein was allowed to air dry. The precipitated protein was resuspended in 4 M Urea, 50 mM HEPES pH 7.4, followed by dilution to 1 M urea with the addition of 200 mM EPPS, pH 8. Proteins were first digested with LysC (1:50; enzyme:protein) for 12 hours at room temperature. The LysC digestion was diluted to 0.5 M Urea with 200 mM EPPS pH 8 followed by digestion with trypsin (1:50; enzyme:protein) for 6 hours at 37° C. Tandem mass tag (TMT) reagents (Thermo Fisher Scientific) were dissolved in anhydrous acetonitrile (ACN) according to manufacturer's instructions.\nAnhydrous ACN was added to each peptide sample to a final concentration of 30% v/v, and labeling was induced with the addition of TMT reagent to each sample at a ratio of 1:4 peptide:TMT label. The 10-plex labeling reactions were performed for 1.5 hours at room temperature and the reaction quenched by the addition of hydroxylamine to a final concentration of 0.3% for 15 minutes at room temperature. The sample channels were combined at a 1:1:1:1:1:1:1:1:1:1:1 ratio, desalted using C18 solid phase extraction cartridges (Waters®) and analyzed by LC-MS for channel ratio comparison. Samples were then combined using the adjusted volumes determined in the channel ratio analysis and dried down in a speed vacuum. The combined sample was then resuspended in 1% formic acid, and acidified (pH 2-3) before being subjected to desalting with C18 SPE (Sep-Pak®, Waters®). Samples were then offline fractionated into 96 fractions by high pH reverse-phase HPLC (Agilent® LC1260) through an aeris peptide xb-c18 column (Phenomenex®) with mobile phase A containing 5% acetonitrile and 10 mM NH4HCO3 in LC-MS grade H2O, and mobile phase B containing 90% acetonitrile and 10 mM NH4HCO3 in LC-MS grade H2O (both pH 8.0). The 96 resulting fractions were then pooled in a non-continuous manner into 24 fractions and these fractions were used for subsequent mass spectrometry analysis.\nData were collected using an Orbitrap Fusion™ Lumos™ mass spectrometer (Thermo Fisher Scientific, San Jose, Calif., USA) coupled with a Proxeon EASY-nLC™ 1200 LC pump (Thermo Fisher Scientific). Peptides were separated on an EasySpray™ ES803 75 μm inner diameter microcapillary column (ThermoFisher Scientific).\nEach analysis used an MS3-based TMT method as described in McAlister et al., Anal. Chem. 86(14):7150-7158 (2014). The data were acquired using a mass range of m/z 340-1350, resolution 120,000, automatic gain control (AGC) target 1×10^6, maximum injection time 100 ms, dynamic exclusion of 120 seconds for the peptide measurements in the Orbitrap Fusion™ Lumos™ mass spectrometer. Data dependent MS2 spectra were acquired in the ion trap with a normalized collision energy (NCE) set at 55%, AGC target set to 1.5×10^5 and a maximum injection time of 150 ms. […]"}, "[1]": {"target": "T1, full length human HDAC8-EGFP (Homo sapiens, UniProt Q9BY41)", "T1 construct": "Cells stably expressing the full length human HDAC8-EGFP with mCherry reporter; expressed in transfected cells; Cilantro2 vector (Addgene, 74450)", "T1 sequence (Q9BY41 1-377)": "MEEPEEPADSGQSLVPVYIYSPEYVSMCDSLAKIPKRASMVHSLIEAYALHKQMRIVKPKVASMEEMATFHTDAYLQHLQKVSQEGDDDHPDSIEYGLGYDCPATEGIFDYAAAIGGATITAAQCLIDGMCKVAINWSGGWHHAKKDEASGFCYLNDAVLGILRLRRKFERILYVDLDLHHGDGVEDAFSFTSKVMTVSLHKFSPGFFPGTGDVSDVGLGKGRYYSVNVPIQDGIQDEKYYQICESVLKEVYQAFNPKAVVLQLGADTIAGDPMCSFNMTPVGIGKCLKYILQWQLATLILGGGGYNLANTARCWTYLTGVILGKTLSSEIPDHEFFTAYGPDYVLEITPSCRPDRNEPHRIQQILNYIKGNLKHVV", "assay": "HDAC8 reporter assay (HDAC8-EGFP with mCherry reporter)", "assay_type": "cell-based", "details": "5 hour treatment, FIG. 6; hook effect at higher concentrations", "experimental": "Cells stably expressing the full length human HDAC8-EGFP with mCherry reporter in Cilantro2 vector (Addgene, 74450) were seeded at 30-50% confluency in 384-well plates with 50 μL FluoroBrite™ DMEM media (Thermo Fisher Scientific, A18967) containing 10% FBS per well a day before compound treatment. Compounds were dispensed using a D300e Digital Dispenser (HP), normalized to 0.5% DMSO, and incubated with cells for 5 hours. The assay plate was imaged immediately using an Acumen® High Content Imager (TTP Labtech) with 488 nm and 561 nm lasers in […] per well format. The resulting images were analyzed using CellProfiler™.\nA series of image analysis steps (‘image analysis pipeline’) was constructed. First, the red and green channels were aligned and cropped to target the middle of each well (to avoid analysis of heavily clumped cells at the edges), and a background illumination function was calculated for both red and green channels of each well individually and subtracted to correct for illumination variations across the 384-well plate from various sources of error. An additional step was then applied to the green channel to suppress the analysis of large auto fluorescent artifacts and enhance the analysis of cell specific fluorescence by way of selecting for objects under a given size, 30 A.U., and with a given shape, speckles. mCherry-positive cells were then identified in the red channel filtering for objects between 8-60 pixels in diameter and using intensity to distinguish between clumped objects. The green channel was then segmented into GFP positive and negative areas and objects were labeled as GFP positive if at least 40% of it overlapped with a GFP positive area. The fraction of GFP-positive cells/mCherry-positive cells in each well was then calculated, and the green and red images were rescaled for visualization. The values for the concentrations that lead to a 50% degradation (DC50) were calculated using the nonlinear fit variable slope model in GraphPad Prism software."}}, "data": [{"compound": "O=C(/C=C/c1ccc(CN(CCOCCOCCOCCOCCNc2cccc3c2C(=O)N(C2CCC(=O)NC2=O)C3=O)CCc2c[nH]c3ccccc23)cc1)NO", "note": "(stereo not drawn) [Compound 5, (E)-3-(4-(2-(2-(1H-indol-3-yl)ethyl)-16-((2-(2,6-dioxopiperidin-3-yl)-1,3-dioxoisoindolin-4-yl)amino)-5,8,11,14-tetraoxa-2-azahexadecyl)phenyl)-N-hydroxyacrylamide]", "values": [{"measurement": "reduction in HDAC6/8 protein levels compared to DMSO treated cells", "setting": "HDAC6/8", "result": "significant reduction"}, {"measurement": "degradation of GFP tagged HDAC8 in the reporter cell lines", "setting": "[1]", "result": "degradation of GFP tagged HDAC8"}]}, {"compound": "O=C(/C=C/c1ccc(CN(CCOCCOCCOCCNc2cccc3c2C(=O)N(C2CCC(=O)NC2=O)C3=O)CCc2c[nH]c3ccccc23)cc1)NO", "note": "(stereo not drawn) [Compound 4, (E)-3-(4-(2-(2-(1H-indol-3-yl)ethyl)-13-((2-(2,6-dioxopiperidin-3-yl)-1,3-dioxoisoindolin-4-yl)amino)-5,8,11-trioxa-2-azatridecyl)phenyl)-N-hydroxyacrylamide]", "values": [{"measurement": "degradation of GFP tagged HDAC8 in the reporter cell lines", "setting": "[1]", "result": "degradation of GFP tagged HDAC8"}]}]}
